# Experimental data published in article PMC11392244, “Characterization of a unique catechol-O-methyltransferase as a molecular drug target in parasitic filarial nematodes” (PLOS Neglected Tropical Diseases, 2024).
# Values joined by “and” are separate entries in the source; they are usually repeats but may differ in a detail not shown here. Identical values can stand only once. Like-named read-outs stand apart in the source and are kept apart here.
# What was measured:
# DiMT protein [1] = assay: DiMT enzyme activity, kinetics and substrate specificity (MTase-Glo methyltransferase assay); format: biochemical, Dirofilaria immitis; conditions: for DiMT catalytic activity for methylation of the substrate: SAM as co-substrate; for Vmax / Km: Michaelis-Menten fit; for Km: other substrate fixed
# DiMT protein [2] = format: biochemical, Dirofilaria immitis
# D. immitis microfilariae = assay: In vitro efficacy against live D. immitis microfilariae (motility, completely immotile %); format: cell-based, Dirofilaria immitis; conditions: for Completely Immotile Microfilariae (%): single replicate
# [3] = DiMT 90 ng/μL, SAM 40 μM, substrate 300 μM
smiles,measurement,setting,value
OCCS [2-Mercaptoethanol],Mean RLU,DiMT protein [1]; [3],-2592.7 RLU
same,DiMT catalytic activity for methylation of the substrate,DiMT protein [1],did not depict catalytic activity
NCCc1ccc(O)c(O)c1 [Dopamine],Kcat (S^-1),DiMT protein [1]; DiMT 90 ng/μL,241.28 S^-1
same,Mean RLU,DiMT protein [1]; [3],5806.3 RLU
same,Vmax,DiMT protein [1]; DiMT 90 ng/μL,1549.0 nmol/µg/min and 1549.0 ± 21.4 nmol/µg/min
same,Km,DiMT protein [1]; DiMT 90 ng/μL,106 ± 6.2 µM
same,DiMT catalytic activity for methylation of the substrate,DiMT protein [1],readily catalyzed the methylation
same,Mean RLU,"DiMT protein [1]; dopamine 50 uM, SAM (30 µM)",114.3 RLU
same,RLU (single experiments),"DiMT protein [1]; dopamine 50 uM, SAM (30 µM)",106.0 RLU and 141.0 RLU and 96.0 RLU
same,Mean RLU,"DiMT protein [1]; dopamine 100 uM, SAM (30 µM)",391.3 RLU
same,Mean RLU,"DiMT protein [1]; dopamine 200 uM, SAM (30 µM)",1186.3 RLU
same,RLU (single experiments),"DiMT protein [1]; dopamine 200 uM, SAM (30 µM)",958.0 RLU and 965.0 RLU and 1636.0 RLU
same,Mean RLU,"DiMT protein [1]; dopamine 300 uM, SAM (30 µM)",2161.3 RLU
same,RLU (single experiments),"DiMT protein [1]; dopamine 300 uM, SAM (30 µM)",1950.0 RLU and 1857.0 RLU and 2677.0 RLU
same,Mean RLU,"DiMT protein [1]; dopamine 400 uM, SAM (30 µM)",2830.0 RLU
same,RLU (single experiments),"DiMT protein [1]; dopamine 400 uM, SAM (30 µM)",2877.0 RLU and 2606.0 RLU and 3007.0 RLU
same,Mean RLU,"DiMT protein [1]; dopamine 500 uM, SAM (30 µM)",3483.0 RLU
same,RLU (single experiments),"DiMT protein [1]; dopamine 500 uM, SAM (30 µM)",2900.0 RLU and 4023.0 RLU and 3526.0 RLU
NCCc1c[nH]cn1 [Histamine],Mean RLU,DiMT protein [1]; [3],167.3 RLU
same,DiMT catalytic activity for methylation of the substrate,DiMT protein [1],did not depict catalytic activity
CO[C@H]1/C=C/O[C@@]2(C)Oc3c(C)c(O)c4c(O)c(cc(O)c4c3C2=O)NC(=O)/C(C)=C\C=C\[C@H](C)[C@H](O)[C@@H](C)[C@@H](O)[C@@H](C)[C@H](OC(C)=O)[C@@H]1C [NSC133100],Mean Percent Inhibition,DiMT protein [2]; 100 µM,24.8% and 27.0% and 28.5%
same,"Mean Percent Inhibition, Average",DiMT protein [2]; 100 µM,26.8%
same,Mean Percent Inhibition,DiMT protein [2]; 200 µM,32.0% and 34.7% and 35.8%
same,"Mean Percent Inhibition, Average",DiMT protein [2]; 200 µM,34.1%
same,Mean Percent Inhibition,DiMT protein [2]; 300 µM,33.9% and 41.0% and 42.1%
same,"Mean Percent Inhibition, Average",DiMT protein [2]; 300 µM,39.0%
same,Mean Percent Inhibition,DiMT protein [2]; 400 µM,40.4% and 46.0%
same,"Mean Percent Inhibition, Average",DiMT protein [2]; 400 µM,44.1%
same,Mean Percent Inhibition,DiMT protein [2]; 500 µM,51.5% and 54.8% and 55.7%
same,"Mean Percent Inhibition, Average",DiMT protein [2]; 500 µM,54.0%
same,IC50,DiMT protein [2]; read-out: IC 50 (μM ± SEM),496.9 ± 2.7 µM
same,Mean completely Immotile (%),"D. immitis microfilariae; 15 µM, 0 h",0%
same,Completely Immotile Microfilariae (%),"D. immitis microfilariae; 15 µM, 0 h",0%
same,Mean completely Immotile (%),"D. immitis microfilariae; 15 µM, 24 h",1%
same,Completely Immotile Microfilariae (%),"D. immitis microfilariae; 15 µM, 24 h",0% and 1% and 2%
same,Mean completely Immotile (%),"D. immitis microfilariae; 15 µM, 48 h",2.67%
same,Completely Immotile Microfilariae (%),"D. immitis microfilariae; 15 µM, 48 h",1% and 3% and 4%
same,Mean completely Immotile (%),"D. immitis microfilariae; 15 µM, 72 h",4.67%
same,Completely Immotile Microfilariae (%),"D. immitis microfilariae; 15 µM, 72 h",3% and 5% and 6%
same,Mean completely Immotile (%),"D. immitis microfilariae; 15 µM, 96 h",6.67%
same,Completely Immotile Microfilariae (%),"D. immitis microfilariae; 15 µM, 96 h",5% and 7% and 8%
same,Mean completely Immotile (%),"D. immitis microfilariae; 15 µM, 120 h",9.67%
same,Completely Immotile Microfilariae (%),"D. immitis microfilariae; 15 µM, 120 h",7% and 10% and 12%
same,Mean completely Immotile (%),"D. immitis microfilariae; 25 µM, 0 h",0%
same,Completely Immotile Microfilariae (%),"D. immitis microfilariae; 25 µM, 0 h",0%
same,Mean completely Immotile (%),"D. immitis microfilariae; 25 µM, 24 h",3%
same,Completely Immotile Microfilariae (%),"D. immitis microfilariae; 25 µM, 24 h",2% and 3% and 4%
same,Mean completely Immotile (%),"D. immitis microfilariae; 25 µM, 48 h",4.67%
same,Completely Immotile Microfilariae (%),"D. immitis microfilariae; 25 µM, 48 h",3% and 5% and 6%
same,Mean completely Immotile (%),"D. immitis microfilariae; 25 µM, 72 h",6.67%
same,Completely Immotile Microfilariae (%),"D. immitis microfilariae; 25 µM, 72 h",5% and 7% and 8%
same,Mean completely Immotile (%),"D. immitis microfilariae; 25 µM, 96 h",9.33%
same,Completely Immotile Microfilariae (%),"D. immitis microfilariae; 25 µM, 96 h",7% and 10% and 11%
same,Mean completely Immotile (%),"D. immitis microfilariae; 25 µM, 120 h",13.67%
same,Completely Immotile Microfilariae (%),"D. immitis microfilariae; 25 µM, 120 h",10% and 16% and 15%
same,Mean completely Immotile (%),"D. immitis microfilariae; 50 µM, 0 h",0%
same,Completely Immotile Microfilariae (%),"D. immitis microfilariae; 50 µM, 0 h",0%
same,Mean completely Immotile (%),"D. immitis microfilariae; 50 µM, 24 h",5%
same,Completely Immotile Microfilariae (%),"D. immitis microfilariae; 50 µM, 24 h",4% and 5% and 6%
same,Mean completely Immotile (%),"D. immitis microfilariae; 50 µM, 48 h",8%
same,Completely Immotile Microfilariae (%),"D. immitis microfilariae; 50 µM, 48 h",7% and 8% and 9%
same,Mean completely Immotile (%),"D. immitis microfilariae; 50 µM, 72 h",10.67%
same,Completely Immotile Microfilariae (%),"D. immitis microfilariae; 50 µM, 72 h",9% and 11% and 12%
same,Mean completely Immotile (%),"D. immitis microfilariae; 50 µM, 96 h",12.67%
same,Completely Immotile Microfilariae (%),"D. immitis microfilariae; 50 µM, 96 h",11% and 13% and 14%
same,Mean completely Immotile (%),"D. immitis microfilariae; 50 µM, 120 h",17%
same,Completely Immotile Microfilariae (%),"D. immitis microfilariae; 50 µM, 120 h",14% and 19% and 18%
same,Mean completely Immotile (%),"D. immitis microfilariae; 75 µM, 0 h",0%
same,Completely Immotile Microfilariae (%),"D. immitis microfilariae; 75 µM, 0 h",0%
same,Mean completely Immotile (%),"D. immitis microfilariae; 75 µM, 24 h",6.33%
same,Completely Immotile Microfilariae (%),"D. immitis microfilariae; 75 µM, 24 h",5% and 6% and 8%
same,Mean completely Immotile (%),"D. immitis microfilariae; 75 µM, 48 h",10%
same,Completely Immotile Microfilariae (%),"D. immitis microfilariae; 75 µM, 48 h",9% and 10% and 11%
same,Mean completely Immotile (%),"D. immitis microfilariae; 75 µM, 72 h",13%
same,Completely Immotile Microfilariae (%),"D. immitis microfilariae; 75 µM, 72 h",12% and 13% and 14%
same,Mean completely Immotile (%),"D. immitis microfilariae; 75 µM, 96 h",15.67%
same,Completely Immotile Microfilariae (%),"D. immitis microfilariae; 75 µM, 96 h",14% and 16% and 17%
same,Mean completely Immotile (%),"D. immitis microfilariae; 75 µM, 120 h",20.67%
same,Completely Immotile Microfilariae (%),"D. immitis microfilariae; 75 µM, 120 h",17% and 23% and 22%
same,effect on microfilariae,D. immitis microfilariae; up to 120 h of culture,insignificant effect
NCC(O)c1ccc(O)cc1 (stereo not shown) [Octopamine],fold lower DiMT activity than that of dopamine,DiMT protein [1],3 fold
same,Mean RLU,DiMT protein [1]; [3],1996.7 RLU
same,DiMT catalytic activity for methylation of the substrate,DiMT protein [1],modest activity
NCCOP(=O)(O)O [Phosphoethanolamine],Mean RLU,DiMT protein [1]; [3],-1783.7 RLU
same,DiMT catalytic activity for methylation of the substrate,DiMT protein [1],did not depict catalytic activity
"C[S+](CC[C@H](N)C(=O)[O-])C[C@H]1O[C@@H](n2cnc3c(N)ncnc32)[C@H](O)[C@@H]1O (stereo partly drawn) [SAM, S-adenosyl-L-methionine]",Kcat (S^-1),DiMT protein [1]; DiMT 90 ng/μL,42.94 S^-1
same,Vmax,DiMT protein [1]; DiMT 90 ng/μL,275.7 ± 3.9 nmol/µg/min
same,Km,DiMT protein [1]; DiMT 90 ng/μL,104 ± 2.7 µM
same,Mean RLU,"DiMT protein [1]; SAM 10 µM, dopamine 360 µM",756.5 RLU
same,RLU (single experiments),"DiMT protein [1]; SAM 10 µM, dopamine 360 µM",914.5 RLU and 723.5 RLU and 631.5 RLU
same,Mean RLU,"DiMT protein [1]; SAM 20 µM, dopamine 360 µM",2042.5 RLU
same,RLU (single experiments),"DiMT protein [1]; SAM 20 µM, dopamine 360 µM",2199.5 RLU and 2145.5 RLU and 1782.5 RLU
same,Mean RLU,"DiMT protein [1]; SAM 30 µM, dopamine 360 µM",3090.5 RLU
same,RLU (single experiments),"DiMT protein [1]; SAM 30 µM, dopamine 360 µM",2251.5 RLU and 2688.5 RLU and 4331.5 RLU
same,Mean RLU,"DiMT protein [1]; SAM 40 µM, dopamine 360 µM",4397.8 RLU
same,RLU (single experiments),"DiMT protein [1]; SAM 40 µM, dopamine 360 µM",4459.5 RLU and 4406.5 RLU and 4327.5 RLU
same,Mean RLU,"DiMT protein [1]; SAM 50 µM, dopamine 360 µM",5027.5 RLU
same,RLU (single experiments),"DiMT protein [1]; SAM 50 µM, dopamine 360 µM",4688.5 RLU and 5346.5 RLU and 5047.5 RLU
same,Mean RLU,"DiMT protein [1]; SAM 60 µM, dopamine 360 µM",4815.8 RLU
same,RLU (single experiments),"DiMT protein [1]; SAM 60 µM, dopamine 360 µM",4881.5 RLU and 5382.5 RLU and 4183.5 RLU
NCCc1ccc(O)cc1 [Tyramine],fold lower DiMT activity than that of dopamine,DiMT protein [1],6 fold
same,Mean RLU,DiMT protein [1]; [3],1001.7 RLU
same,DiMT catalytic activity for methylation of the substrate,DiMT protein [1],modest activity
